The results in this text go back to ChEMBL document CHEMBL1137847, “3-D-QSAR of N-substituted 4-amino-3,3-dialkyl-2(3H)-furanone GABA receptor modulators using molecular field analysis and receptor surface modelling study” (Bioorg Med Chem Lett, 2004).

In this assay the target is GABA-A receptor; anion channel (Homo sapiens) (UniProt P14867+P47870+P18507+P28472+P48169+Q99928+Q9UN88+P34903+O00591+O14764+Q8N1C3+P18505+P78334+P47869+P31644+Q16445). The assay can be described thus: Gamma-aminobutyric acid A receptor modulating activity (expressed as biological activity). It is filed as protein-complex assay.

SMILES strings stand for the structures.

As to `CCCC1(CCC)C(=O)OC[C@H]1NC(=O)OC(C)(C)C`, the BA came to 46.

As to `C=CCOC(=O)N[C@@H]1COC(=O)C1(CCC)CCC`, the BA came to 765.

Turning to `CCCC1(CCC)C(=O)OC[C@H]1NC(=O)OCC`, the BA was 426.

`CCCC1(CCC)C(=O)OC[C@H]1NC(=O)OCc1ccccc1` had a BA of 104.

Consider `CCCC1(CCC)C(=O)OC[C@H]1NS(=O)(=O)N(C)C`, for which the BA is -1.

Regarding `CCCC1(CCC)C(=O)OC[C@H]1NS(=O)(=O)c1ccc(C(F)(F)F)cc1`, the BA is -44.

On to `C=CC[C@@H]1C(=O)OC[C@H]1NCc1ccccc1`, for which the BA was -1.

Consider `CCCC1(CCC)C(=O)OC[C@H]1NS(=O)(=O)c1cccs1`, for which the BA is -16.

With `CCCC1(CCC)C(=O)OC[C@H]1NS(=O)(=O)c1ccc(OC)cc1`, the BA is -22.

`O=C1C[C@H](NCc2ccccc2)CO1`: the BA worked out at 0.

`O=C1C[C@H](NC(=O)OCc2ccccc2)CO1`: the BA worked out at 47.

For the molecule `CCCC1(CCC)C(=O)OC[C@H]1NC(=O)Oc1ccccc1`, the BA is 330.

The molecule `C=CC[C@H]1C(=O)OC[C@H]1NCc1ccccc1` displayed a BA of 73.

For `CCCC1(CCC)C(=O)OC[C@H]1NS(=O)(=O)c1ccc(Cl)cc1`, the BA is 23.

`C=CCC1(CC=C)C(=O)OC[C@H]1NCc1ccccc1` came in with a BA of 115.

`CCCC1(CCC)C(=O)OC[C@H]1NS(=O)(=O)c1ccc2ccccc2c1` returned a BA of 4.

The molecule `CCCC1(CCC)C(=O)OC[C@H]1NC(=O)c1ccccc1` had a BA of 420.

Molecule `CCCC1(CCC)C(=O)OCC1NC(=O)OCc1ccccc1` (single isomer, unassigned) registered a BA of 279.
